How the values were obtained:
[1] = Evaluation of acetal response to 1 M HCl; assay type: physicochemical; conditions: 100 μM; 1 M HCl for one hour; ALDH1A1 0.4 μM; compared among 9, 10, 11
Description: Evaluation of Acetal Response to 1 M HCl. To identify the most robust turn-on to be utilized for this study, compounds 9, 10, and 11 were tested for their ability to be deprotected under acidic conditions. Each acetal was dissolved in DMSO and subjected to equal-volume 1 M HCl and incubated at room temperature for 60 minutes. After this time, each solution was neutralized with 1 M NaOH and diluted to a concentration of 1 mM with PBS. In a black 96-well plate, PBS, NAD^+ (2.5 mM), ALDH1A1 (0.4 μM), and either compound 9, 10 or 11 (100 μM) were added. After 5 minutes, each well was treated with ATP-MgSO4 (45 μL, prepared by mixing 17.78 mM ATP-Mg and 35.56 mM MgSO4 in a 1:1 ratio in PBS buffer) and luciferase (5 μL, 1 mg/mL in PBS containing 10% glycerol) to initiate bioluminescence production. Light was collected immediately after mixing, and the signal enhancement was determined relative to control wells containing no probe or enzymes. The total volume of each well was 200 μL (PBS (pH 7.4) with 0.5% DMSO). All data reported as the mean±standard deviation (n=4).

[2] = system: mesenchymal stem cells (MSCs); assay: AlDeLuc in mesenchymal stem cells, lysed and treated with luciferase; assay type: cell-based; conditions: 20 μM, one hour, ~2.5×10^5 MSCs, lysed
Description: Testing commenced by incubating MSCs with AlDeLuc (20 μM). After one hour, the cells were lysed, treated with luciferase, and imaged. […] Moreover, we wanted to allow for any oxidized N,N-diethyl luciferin substrate to accumulate for the highest possible signal.

[3] = system: 4T1-Luc cells; assay: MTT cytotoxicity assay; assay type: cell-based, murine; conditions: up to the highest concentration tested (100 μM); 2 hours
Description: MTT Cytotoxicity Assay. 48-well plates were seeded with 100,000 cells per well ([…]) and incubated at 37° C. with 5% CO2 for 16 hours (˜75% confluent). Media was removed and fresh RPMI 1640 media with 10% FBS containing 100, 50 25, 12.5, 6.25, 3.13, 1.56, or 0 μM AlDeLuc (1% DMSO final v/v) was added. The media was removed after two hours and replaced with 500 μL of 18:1 mixture of FBS-free RPMI 1640 and (3-(4,5-dimethylthiazol-2-yl)-2,5-diphenyltetrazolium bromide (MT, 5 mg/mL stock in PBS). The cells were incubated for one hour at the same conditions before the media was removed. DMSO (500 μL/well) was added, and the absorbance was read at 555 nm on a microplate reader. Viability was calculated by the absorbance relative to the vehicle control. Values are reported as the mean±standard deviation (n=3).

[4] = system: 4T1-Luc tumors; assay: Bioluminescence imaging of heterotopic breast cancer model with AlDeLuc; assay type: in vivo, BALB/c mice; conditions: 0.55 mg/kg retro-orbital
Description: Generation of 4T1-Luc Breast Cancer Model. Female or male BALB/c mice (˜6 weeks old) were inoculated with 4T1-Luc cells (50 μL of 1×10^6 cells in 1:1 v/v serum-free RPMI 1640 media and Matrigel) via subcutaneous injections into each flank. Tumor volumes were measured using the caliper method every three days. Body weight was measured daily over the course of the experiment. After two weeks, the tumor was in the 200 to 400 mm^3 range.
Bioluminescence Imaging of a Heterotopic Breast Cancer Model with AlDeLuc. BALB/c mice bearing 4T1-Luc tumors were anesthetized using isoflurane (1-3% for maintenance; up to 5% for induction) in oxygen from a precision vaporizer. After testing to ensure animals are fully under anesthesia, each mouse was administered a control solution of 1:19 v/v DMSO:PBS via retro-orbital injection. After 40 minutes, the mice were imaged on the IVIS imaging system. Luminescence was collected using an open filter set. ROIs were drawn around both the left and right tumors, and the intensity was calculated using the Living Image Analysis software.
The following day the mice were anesthetized, and administered AlDeLuc (0.55 mg/kg, 1:19 v/v DMSO:PBS). […] Luminescence was collected using an open filter set. ROIs were drawn around both the left and right tumors, and the intensity was calculated using the Living Image Analysis software.

SMILES: CCN(CC)c1ccc2nc(C3=N[C@@H](C(OC)OC)CS3)sc2c1 [AlDeLuc, (S)-2-(4-(dimethoxymethyl)-4,5-dihydrothiazol-2-yl)-N,N-diethylbenzo[d]thiazol-6-amine]
- acid resistance of acetal (bioluminescence emission after HCl, neutralization, ALDH1A1 and luciferase) [1]: most acid-resistant
- bioluminescence of treated cells [2]: indistinguishable from blank controls
- cell viability (MTT) [3]: nontoxic
- time at which tumor bioluminescence signal plateaued ([4]; 4T1-Luc tumors): 40 min
- signal at the 24-hour mark ([4]; 24 hours after administration): complete clearance

Reference: patent US20250282770A1, “BIOLUMINESCENT PROBES TO TRACK STEM CELLS IN VIVO” (THE BOARD OF TRUSTEES OF THE UNIVERSITY OF ILLINOIS, priority 2024, published 2025)
